Twelve compounds from PMC8877061, “Antifungal and Antibiofilm Activity of Cyclic Temporin L Peptide Analogues against Albicans and Non-Albicans Candida Species” (Pharmaceutics, 2022) can be followed below.

One assay deals with C. parapsilosis DSM 5784. It counts as cell-based.
In another assay the test system is C. albicans ATCC 90028. It counts as cell-based. On the procedure:
C. albicans ATCC 90028, C. auris DSM 21092, C. glabrata DSM 11226, C. tropicalis DSM11951 and C. parapsilosis DSM 4874 grown on YPD Agar (1% w/v yeast extract, 2% w/v peptone, 2% w/v glucose, 1.5% Agar) were cultured in Tryptone soya broth supplemented with 0.1% glucose for 16–18 h at 37 °C, washed twice using sterile phosphate-buffered saline (PBS) and standardized to […] as required for the experiments. RPMI1640 medium (Thermo Fisher Scientific, Waltham, MA, USA) buffered to a pH of 7.0 with 0.165 M MOPS was used for growing the biofilms of all Candida species.
The antifungal activity of peptides against all five Candida species was determined according to CLSI-M27-A3 [33], as reported previously. Briefly, the compounds were tested at concentrations ranging from […] to 50 μM, and the organism suspensions were adjusted to an inoculum of 10^6 cell/mL at OD 590 nm in RPMI 1640, added to the 96-well plate and incubated at 37 °C for 24 h. The minimum inhibitory concentration (MIC) values were determined as the lowest concentration inhibiting fungal growth at 590 nm using a microplate reader (Synergy™ H4; BioTek Instruments, Inc., Winooski, VT, USA). […] The MFC was the lowest concentration that yielded no colony growth on the agar. The MFC/MIC ratio was calculated to determine whether the substance had fungistatic (MFC/MIC ≥ 4) or fungicidal (MFC/MIC < 4) activity.

The mark [1] stands for this setting: CLSI-M27-A3, RPMI 1640, 10^6 cell/mL, 37 °C, 24 h, read at 590 nm, tested 6.5 to 50 μM.

Like-named read-outs stand apart in the source and are kept apart here. Positions of bridges follow the written chain, without caps; N, C: chain ends. Non-standard residues stand in square brackets, D forms with d. Residues, ends and D or L forms follow the SMILES beside them. Triazole bridges read from a SMILES are 1,4-linked. dLys(N3) = [N-]=[N+]=NCCCC[C@@H](N)C(=O)O; Lys(N3) = [N-]=[N+]=NCCCC[C@H](N)C(=O)O; S5 = C=CCCC[C@](C)(N)C(=O)O; dPra = C#CC[C@@H](N)C(=O)O; Pra = C#CC[C@H](N)C(=O)O A value given as a limit tells only on which side of the number the result lay.

`CC[C@H](C)[C@H](NC(=O)[C@H](CCCNC(=N)N)NC(=O)CNC(=O)[C@H]1CCCCn2cc(nn2)C[C@H](NC(=O)[C@H](Cc2c[nH]c3ccccc23)NC(=O)[C@@H]2CCCN2C(=O)[C@@H](NC(=O)[C@@H](N)Cc2ccccc2)C(C)C)C(=O)N[C@@H](CO)C(=O)N[C@@H](CCCCN)C(=O)N[C@@H](Cc2ccccc2)C(=O)N1)C(=O)N[C@@H](CC(C)C)C(N)=O` [compound 9] (H-FVPW[Pra]SKF[dLys(N3)]GRIL-NH2; triazole 5-9; N-terminus assumed): in the assay with C. parapsilosis DSM 5784 (DSM 5784, 24 h), the “MIC, C. parapsilosis DSM 5784” value was more than 50 µM. Besides, the “MIC, C. albicans ATCC 90028” value in the assay with C. albicans ATCC 90028 (ATCC 90028, 24 h) is reported as more than 50 µM.
For the compound `CC[C@H](C)[C@H](NC(=O)[C@H](CCCNC(=N)N)NC(=O)[C@]1(C)CCCC=CCCC[C@](C)(NC(=O)[C@H](Cc2ccccc2)NC(=O)[C@H](Cc2c[nH]c3ccccc23)NC(=O)[C@@H]2CCCN2C(=O)[C@@H](NC(=O)[C@@H](N)Cc2ccccc2)C(C)C)C(=O)N[C@@H](CCCCN)C(=O)N[C@@H](Cc2ccccc2)C(=O)N[C@H](CC(C)C)C(=O)N1)C(=O)N[C@@H](CC(C)C)C(N)=O` [compound 17] (H-FVPWF[S5]KF[dL][S5]RIL-NH2; staple 6-10; N-terminus assumed), the “MIC, C. parapsilosis DSM 5784” value against C. parapsilosis DSM 5784 (DSM 5784, 24 h) is given as more than 50 µM. Further, in the assay with C. albicans ATCC 90028 (ATCC 90028, 24 h), the “MIC, C. albicans ATCC 90028” value is listed as more than 50 µM.
Regarding `CC(C)C[C@H](NC(=O)[C@@H]1CCC(=O)NCCCC[C@H](NC(=O)[C@H](CCCCN)NC(=O)[C@H](CO)NC(=O)[C@H](Cc2ccccc2)NC(=O)[C@H](Cc2c[nH]c3ccccc23)NC(=O)[C@@H]2CCCN2C(=O)[C@@H](NC(=O)[C@@H](N)Cc2ccccc2)C(C)C)C(=O)N[C@H](CC(C)C)C(=O)NCC(=O)N[C@@H](CCCNC(=N)N)C(=O)N1)C(N)=O` [compound 2] (H-FVPWFSKK[dL]GREL-NH2; lactam 8-12; N-terminus assumed), the “MIC, C. parapsilosis DSM 5784” value with C. parapsilosis DSM 5784 (DSM 5784, 24 h) was more than 50 µM. Besides, in the assay on C. albicans ATCC 90028 (ATCC 90028, 24 h), the “MIC, C. albicans ATCC 90028” value is given as more than 50 µM.
Consider `CC[C@H](C)[C@H](NC(=O)[C@H](CCCNC(=N)N)NC(=O)CNC(=O)[C@H]1CCC(=O)NCCCC[C@H](NC(=O)[C@H](Cc2c[nH]c3ccccc23)NC(=O)[C@@H]2CCCN2C(=O)[C@@H](NC(=O)[C@@H](N)Cc2ccccc2)C(C)C)C(=O)N[C@@H](CO)C(=O)N[C@@H](CCCCN)C(=O)N[C@@H](Cc2ccccc2)C(=O)N1)C(=O)N[C@@H](CC(C)C)C(N)=O` [compound 4] (H-FVPWKSKF[dE]GRIL-NH2; lactam 5-9; N-terminus assumed), for which, in the assay on C. parapsilosis DSM 5784 (DSM 5784, 24 h), the “MIC, C. parapsilosis DSM 5784” value is given as more than 50 µM. In addition, the “MIC, C. albicans ATCC 90028” value with C. albicans ATCC 90028 (ATCC 90028, 24 h) was more than 50 µM.
With `CC[C@H](C)[C@@H]1NC(=O)[C@H](CCCNC(=N)N)NC(=O)CNC(=O)[C@H](NC(=O)[C@H](Cc2ccccc2)NC(=O)[C@H](CCCCN)NC(=O)[C@H](CO)NC(=O)[C@H](Cc2ccccc2)NC(=O)[C@H](Cc2c[nH]c3ccccc23)NC(=O)[C@@H]2CCCN2C(=O)[C@@H](NC(=O)[C@@H](N)Cc2ccccc2)C(C)C)CCCCNC(=O)CC[C@@H](C(N)=O)NC1=O` [compound 1] (H-FVPWFSKF[dK]GRIE-NH2; lactam 9-13; N-terminus assumed), the “MIC, C. parapsilosis DSM 5784” value in the assay with C. parapsilosis DSM 5784 (setting [1]) is listed as more than 50 µM. Further, the “MIC, C. albicans ATCC 90028” value with C. albicans ATCC 90028 (setting [1]) is given as more than 50 µM.
For `CC[C@H](C)[C@H](NC(=O)[C@H](CCCNC(=N)N)NC(=O)CNC(=O)[C@@H](CC(C)C)NC(=O)[C@@H]1CCCCn2cc(nn2)C[C@H](NC(=O)[C@@H]2CCCN2C(=O)[C@@H](NC(=O)[C@@H](N)Cc2ccccc2)C(C)C)C(=O)N[C@@H](Cc2ccccc2)C(=O)N[C@@H](CO)C(=O)N[C@@H](CCCCN)C(=O)N1)C(=O)N[C@@H](CC(C)C)C(N)=O` [compound 10] (H-FVP[Pra]FSK[Lys(N3)][dL]GRIL-NH2; triazole 4-8; N-terminus assumed), in the assay with C. parapsilosis DSM 5784 (DSM 5784, 24 h), the “MIC, C. parapsilosis DSM 5784” value is reported as more than 50 µM. For the same compound, the “MIC, C. albicans ATCC 90028” value with C. albicans ATCC 90028 (ATCC 90028, 24 h) is given as more than 50 µM.
On to `CC[C@H](C)[C@@H]1NC(=O)[C@H](CCCNC(=N)N)NC(=O)CNC(=O)[C@@H](CC(C)C)NC(=O)[C@H](Cc2ccccc2)NC(=O)[C@H](CCCCN)NC(=O)[C@@H](NC(=O)[C@H](Cc2ccccc2)NC(=O)[C@H](Cc2c[nH]c3ccccc23)NC(=O)[C@@H]2CCCN2C(=O)[C@@H](NC(=O)[C@@H](N)Cc2ccccc2)C(C)C)Cc2cn(nn2)CCCC[C@@H](C(N)=O)NC1=O` [compound 13] (H-FVPWF[Pra]KF[dL]GRI[Lys(N3)]-NH2; triazole 6-13; N-terminus assumed), for which, in the assay on C. parapsilosis DSM 5784 (DSM 5784, 24 h), the “MIC, C. parapsilosis DSM 5784” value is listed as more than 50 µM. The “MIC, C. albicans ATCC 90028” value in the assay with C. albicans ATCC 90028 (ATCC 90028, 24 h) is listed as more than 50 µM.
Take `CC[C@H](C)[C@H](NC(=O)[C@H](CCCNC(=N)N)NC(=O)[C@@H]1CCCCn2cc(nn2)C[C@H](NC(=O)[C@H](Cc2ccccc2)NC(=O)[C@H](Cc2c[nH]c3ccccc23)NC(=O)[C@@H]2CCCN2C(=O)[C@@H](NC(=O)[C@@H](N)Cc2ccccc2)C(C)C)C(=O)N[C@@H](CCCCN)C(=O)N[C@@H](Cc2ccccc2)C(=O)N[C@H](CC(C)C)C(=O)N1)C(=O)N[C@@H](CC(C)C)C(N)=O` [compound 8] (H-FVPWF[Pra]KF[dL][Lys(N3)]RIL-NH2; triazole 6-10; N-terminus assumed): the “MIC, C. parapsilosis DSM 5784” value in the assay on C. parapsilosis DSM 5784 (DSM 5784, 24 h) was more than 50 µM. Further, the “MIC, C. albicans ATCC 90028” value with C. albicans ATCC 90028 (ATCC 90028, 24 h) is on record as more than 50 µM.
Turning to `CC(C)C[C@H](NC(=O)[C@@H]1CCC(=O)NCCCC[C@H](NC(=O)[C@H](Cc2c[nH]c3ccccc23)NC(=O)[C@@H]2CCCN2C(=O)[C@@H](NC(=O)[C@@H](N)Cc2ccccc2)C(C)C)C(=O)N[C@@H](CO)C(=O)N[C@@H](CCCCN)C(=O)N[C@@H](Cc2ccccc2)C(=O)N[C@H](CC(C)C)C(=O)NCC(=O)N[C@@H](CCCNC(=N)N)C(=O)N1)C(N)=O` [compound 12] (H-FVPWKSKF[dL]GREL-NH2; lactam 5-12; N-terminus assumed), the “MIC, C. parapsilosis DSM 5784” value in the assay with C. parapsilosis DSM 5784 (DSM 5784, 24 h) was more than 50 µM. For the same compound, the “MIC, C. albicans ATCC 90028” value in the assay on C. albicans ATCC 90028 (ATCC 90028, 24 h) was more than 50 µM.
Take `CC[C@H](C)[C@H](NC(=O)[C@H](CCCNC(=N)N)NC(=O)CNC(=O)[C@@H](CC(C)C)NC(=O)[C@@H]1CCC(=O)NCCCC[C@H](NC(=O)[C@@H]2CCCN2C(=O)[C@@H](NC(=O)[C@@H](N)Cc2ccccc2)C(C)C)C(=O)N[C@@H](Cc2ccccc2)C(=O)N[C@@H](CO)C(=O)N[C@@H](CCCCN)C(=O)N1)C(=O)N[C@@H](CC(C)C)C(N)=O` [compound 5] (H-FVPKFSKE[dL]GRIL-NH2; lactam 4-8; N-terminus assumed): the “MIC, C. parapsilosis DSM 5784” value in the assay with C. parapsilosis DSM 5784 (DSM 5784, 24 h) is on record as more than 50 µM. Also, the “MIC, C. albicans ATCC 90028” value with C. albicans ATCC 90028 (ATCC 90028, 24 h) is more than 50 µM.
Turning to `CC[C@H](C)[C@@H]1NC(=O)[C@H](CCCNC(=N)N)NC(=O)CNC(=O)[C@H](NC(=O)[C@H](Cc2ccccc2)NC(=O)[C@H](CCCCN)NC(=O)[C@H](CO)NC(=O)[C@H](Cc2ccccc2)NC(=O)[C@H](Cc2c[nH]c3ccccc23)NC(=O)[C@@H]2CCCN2C(=O)[C@@H](NC(=O)[C@@H](N)Cc2ccccc2)C(C)C)Cc2cn(nn2)CCCC[C@@H](C(N)=O)NC1=O` [compound 6] (H-FVPWFSKF[dPra]GRI[Lys(N3)]-NH2; triazole 9-13; N-terminus assumed), the “MIC, C. parapsilosis DSM 5784” value against C. parapsilosis DSM 5784 (DSM 5784, 24 h) was more than 50 µM. For the same compound, the “MIC, C. albicans ATCC 90028” value with C. albicans ATCC 90028 (ATCC 90028, 24 h) is given as more than 50 µM.
With `CC(C)C[C@H](NC(=O)[C@@H]1CCCCn2cc(nn2)C[C@H](NC(=O)[C@H](Cc2c[nH]c3ccccc23)NC(=O)[C@@H]2CCCN2C(=O)[C@@H](NC(=O)[C@@H](N)Cc2ccccc2)C(C)C)C(=O)N[C@@H](CO)C(=O)N[C@@H](CCCCN)C(=O)N[C@@H](Cc2ccccc2)C(=O)N[C@H](CC(C)C)C(=O)NCC(=O)N[C@@H](CCCNC(=N)N)C(=O)N1)C(N)=O` [compound 14] (H-FVPW[Pra]SKF[dL]GR[Lys(N3)]L-NH2; triazole 5-12; N-terminus assumed), in the assay on C. parapsilosis DSM 5784 (DSM 5784, 24 h), the “MIC, C. parapsilosis DSM 5784” value was more than 50 µM. Moreover, the “MIC, C. albicans ATCC 90028” value with C. albicans ATCC 90028 (ATCC 90028, 24 h) is listed as more than 50 µM.
